How the values were obtained:
[1] = system: flank sebaceous glands of golden hamster; assay: In vivo efficacy on acne in female golden hamsters (growth of sebaceous plaques induced by testosterone propionate); conditions: skin smear once a day, 21 days
From the text: Activity Assay Example 7: In Vivo Efficacy of Compounds on Acne in Female Golden Hamsters
1. Test object: The flank sebaceous glands of golden hamster are androgen-dependent organs, and testosterone propionate (male hormone) promotes the enlargement of sebaceous glands. This experiment is mainly to study the inhibitory effect of CB-03-01 (positive drug), Flutamide (positive drug) and the compound on sebaceous gland enlargement in female golden hamster acne model (androgen dependence), to further observe the in vivo drug efficacy of the compound, to provide the basis for clinical trials of androgen-induced acne symptoms.
Androgen (Testosterone Propionate-TP); CB-03-01 (Clascoterone, CAS No. 19608-29-8); □ Flutamide (Flutamide, CAS No. 13311-84-7); compound A46 of the present invention.
2.2 Experimental Animals, See Table 4 for Details
2.3 Administration Vehicle: Acetone. 3. Experimental Design
In this experiment, from 72 female golden hamsters, according to the size and body weight of sebaceous glands, golden hamsters were evenly distributed to each group, 6 mice per group, a total of 7 groups, and they were administered continuously for 21 days.
According to the protocol in the table, […] of drug was administered each time, it was evenly smeared on the sebaceous glands, and administered once a day.
Animal grouping and status observation: Before grouping, the body weight was weighed, and the sebaceous glands on both sides were shaved for the observation of the size of sebaceous glands. Animals were observed twice a day in the morning and afternoon during the administration period. On the 21st day after administration, the size of sebaceous glands and the body weight of animals were observed and recorded.
The size of the sebaceous glands is expressed by the area, and the vernier caliper recorded its long side (a) and short side (b), and the area of the sebaceous glands (S) is obtained from the formula for calculating the area of a rectangle. In model group and administration group, ΔS=S−S(vehicle). Growth inhibition rate (%)=(ΔS(acetone testosterone group)−ΔS (administration group))/ΔS(acetone testosterone group)*100%.

[2] = Distribution of compounds in sebaceous glands and blood in golden hamsters; format: in vivo; conditions: for mean drug concentration in sebaceous glands: after 8 h
Method: Activity Assay Example 9: Distribution of Compounds in Sebaceous Glands and Blood in Golden Hamsters
6 male golden hamsters were selected for the experiment and divided into two groups (three in each group). The drug was administered by a single smear route. All animals fasted overnight before administration.
1.1 Experimental Method 1.1.1 Dosage of Administration
A46 was weighed into a 50 ml centrifuge tube, added with mixed solvent (75% ethanol, 15% glyceryl tri(2-ethylhexanoate) and 10% glycerol), vortexed and heated at 60° C. until A46 was completely dissolved. A46 was prepared at a concentration of 30 mg/mL, 100 mg/mL, and stored at room temperature in the dark.
In group 1, the dosage for smear administration was 1.2 mg, corresponding to an administration volume of 30 mL/kg. In group 2, the dosage for smear administration was 4 mg, and the administration volume was 100 mL/kg.
1.1.2 Method of Administration
During the experiment, the 2 sebaceous glands of all the hamsters were coated with the corresponding medicinal solution (the dosage was about 0.02 mL).
1.1.3 Observation of Animal Status
Immediately after administration, whether the animals have abnormal reactions was observed. If there were no abnormal reactions, the animals were observed twice during the experiment. If any abnormal reactions were found, the number of observations was recorded and increased in time until the animals returned to normal, or the experiment ended.
1.1.4 Sample Collection and Storage
All experimental animals were fasted overnight before administration, and blood was collected at corresponding time points into blood collection tubes containing heparin sodium anticoagulant after administration. After collection of whole blood, the blood collection tube was immediately shook gently and placed on ice, then centrifuged (4° C., 4000 rpm, 10 min) to collect the supernatant plasma sample (plasma volume ≥100 μL), and the supernatant plasma sample was stored at −80° C. before analysis. Plasma sample was collected for 8 h.

Cc1ncsc1-c1ccc(CNC(=O)[C@@H]2C[C@@H](O)CN2C(=O)[C@@H](NC(=O)COCCCCOc2ccc(-c3ccc(N4C(=S)N(c5ccc(C#N)c(C(F)(F)F)c5F)C(=O)C4(C)C)cn3)cc2)C(C)(C)C)cc1 [Compound A46]
The inhibition rate of the growth of sebaceous plaques (%) ([1]; 100 μg (0.4%) + testosterone propionate 12 μg): 19.24%
The inhibition rate of the growth of sebaceous plaques (%) ([1]; 200 μg (0.8%) + testosterone propionate 12 μg): 35.20%
The inhibition rate of the growth of sebaceous plaques (%) ([1]; 400 μg (1.6%) + testosterone propionate 12 μg): 49.54%
The inhibition rate of the growth of sebaceous plaques (%) ([1]; 800 μg (3.2%) + testosterone propionate 12 μg): 51.61%
mean drug concentration in sebaceous glands ([2]; group 1, single smear 1.2 mg (30 mg/mL)): 13.513 µg/mL
mean drug concentration in sebaceous glands ([2]; group 2, single smear 4 mg (100 mg/mL)): 24.223 µg/mL
maximum blood concentration ([2]; group 2, single smear 4 mg (100 mg/mL), one out of 3 animals, sampling 0.25-8 h): 10.6 ng/mL
blood concentration (below the detection limit) ([2]; group 2, single smear 4 mg (100 mg/mL), remaining 2 animals, sampling 0.25-8 h): < 0.002 µg/mL

— patent publication US12606552B2, “Bifunctional compound, preparation method therefor, and use thereof” (SUZHOU KINTOR PHARMACEUTICALS, INC., priority 2020, dated 2026)
